Measurements: ChEMBL document CHEMBL1124132, “Adenosine receptor agonists: synthesis and biological evaluation of 1-deaza analogues of adenosine derivatives” (J Med Chem, 1988)

Assays:
[1] = biological target: T1, Adenosine receptor A1 (Rattus norvegicus) (UniProt P25099); experiment: Maximal inhibition of adenylate cyclase activity relative to R-PIA for Adenosine A1 receptor (Inhibition by R-PIA=53+/-10%)
T1 sequence (whole entry): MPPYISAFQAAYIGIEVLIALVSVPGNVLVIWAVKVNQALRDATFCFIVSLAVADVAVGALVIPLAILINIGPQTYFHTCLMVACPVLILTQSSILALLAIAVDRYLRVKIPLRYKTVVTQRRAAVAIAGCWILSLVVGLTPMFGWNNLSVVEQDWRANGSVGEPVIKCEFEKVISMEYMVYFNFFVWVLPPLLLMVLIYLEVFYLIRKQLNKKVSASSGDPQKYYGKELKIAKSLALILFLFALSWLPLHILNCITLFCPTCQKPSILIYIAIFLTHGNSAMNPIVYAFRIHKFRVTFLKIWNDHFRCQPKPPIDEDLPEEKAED

[2] = A1 selectivity as ratio of EC50 at A2 receptor to IC50 at A1 receptor
Adenosine receptor A1 [3] = biological target: T2, Adenosine receptor A1 (Rattus norvegicus, UniProt P25099); experiment: Inhibition of Adenylate cyclase activity in rat fat cell membrane at adenosine A1 receptor; type: cell-based
T2 sequence (P25099 whole entry): T1 sequence (whole entry)

Adenosine A2 receptor [4] = biological target: Adenosine A2 receptor (Rattus norvegicus, UniProt P29276+P30543)
Adenosine A2 receptor [5] = biological target: Adenosine A2 receptor (Homo sapiens, UniProt P29275+P29274)
Description: Stimulation of adenylate cyclase activity in human platelet membrane at A2 receptor

Adenosine receptor A1 [6] = biological target: T2, Adenosine receptor A1
Description: Displacement of [3H]PIA from adenosine A1 receptor of rat brain membranes

Homo sapiens = species on record: Homo sapiens; experiment: Concentration that inhibits platelet aggregation induced by ADP (7 uM) by 50%; type: functional

SMILES | relative max inhibition [1] | Selectivity [2] | IC50 (Adenosine receptor A1 [3]) | Ki (Adenosine A2 receptor [4]) | EC50 (Adenosine A2 receptor [5]) | Ki (Adenosine receptor A1 [6]) | IC50 (Homo sapiens)
OC[C@H]1O[C@@H](n2cnc3c(NC4CCCC4)ncnc32)[C@H](O)[C@@H]1O [N6-CYCLOPENTYLADENOSINE] | – | – | – | 2000 nM | – | – | –
OC[C@H]1O[C@@H](n2cnc3c(NC4CCCCC4)cc(Cl)nc32)[C@H](O)[C@@H]1O | 114% | 2 | 2400 nM | 8200 nM | 4800 nM | 47 nM | –
OC[C@H]1O[C@@H](n2cnc3c(NC4CCCCC4)ccnc32)[C@H](O)[C@@H]1O | 109% | 12.4 | 1600 nM | 6800 nM | 20000 nM | 16 nM | –
Nc1ncnc2c1ncn2[C@@H]1O[C@H](CO)[C@@H](O)[C@H]1O [ADENOSINE] | – | – | – | – | – | – | 5940 nM
Nc1ccnc2c1ncn2[C@@H]1O[C@H](CO)[C@@H](O)[C@H]1O | 97% | 2.7 | 6700 nM | 2900 nM | 18000 nM | 115 nM | 65500 nM
CCNC(=O)[C@H]1O[C@@H](n2cnc3c(N)ncnc32)[C@H](O)[C@@H]1O [NECA] | – | – | – | – | – | – | 600 nM

Continued by falling IC50 (Adenosine receptor A1 [3]), values first:

relative max inhibition [1] | Selectivity [2] | IC50 (Adenosine receptor A1 [3]) | Ki (Adenosine A2 receptor [4]) | EC50 (Adenosine A2 receptor [5]) | Ki (Adenosine receptor A1 [6]) | IC50 (Homo sapiens) | SMILES
104% | 1.9 | 1500 nM | 580 nM | 2800 nM | 51 nM | 5960 nM | CCNC(=O)[C@H]1O[C@@H](n2cnc3c(N)ccnc32)[C@H](O)[C@@H]1O
107% | 27 | 970 nM | 17600 nM | 26000 nM | 7.5 nM | – | OC[C@H]1O[C@@H](n2cnc3c(NC4CCCC4)ccnc32)[C@H](O)[C@@H]1O
108% | 3.6 | 960 nM | 3700 nM | 3500 nM | 18 nM | – | CC(Cc1ccccc1)Nc1cc(Cl)nc2c1ncn2C1O[C@H](CO)[C@@H](O)[C@H]1O (stereo partly drawn)
116% | 10.5 | 630 nM | 4900 nM | 6600 nM | 7.7 nM | – | CC(Cc1ccccc1)Nc1ccnc2c1ncn2C1O[C@H](CO)[C@@H](O)[C@H]1O (stereo partly drawn)
107% | 78 | 360 nM | 13200 nM | 28000 nM | 1.6 nM | – | OC[C@H]1O[C@@H](n2cnc3c(NC4CCCC4)cc(Cl)nc32)[C@H](O)[C@@H]1O
